Entries after “also recorded” stand apart in the source; their conditions may differ.
Tests used:
QSOX1-a mRNA [1] = assay: QSOX1-a mRNA abundance in RNase L-knockdown (CRISPR-edited) MDA-MB-231 cells; assay type: cell-based, human; settings: CRISPR-edited cells with RNase L knockdown
Procedure: The CRISPR-edited MDA-MB-231 cell lines used in this study were the same as those previously reported and characterized.^8 Briefly, lentiviral constructs containing Cas9 and gRNA targeting RNase L mRNA (or a scramble control) were purchased (Transomic Tech) and transfected in HEK293T cells (ATCC CRL-11268) to harvest virus. Transduction to MDA-MB-231 cells were performed in the presence of […] polybrene (Millipore, Cat #TR-1003-G) followed by selection with puromycin.
Analysis of mRNA Abundance by RT-qPCR. Unless stated otherwise, all RT-qPCR experiments were performed to measure nascent RNA levels by using Click-it Nascent RNA Capture Kit (Cat #C10365, Thermo Fisher) per the manufacturer's protocols. Briefly, cells were treated with 0.2 mM of ethynyl uridine (EU) in growth medium for 16 h, after which the medium was replaced with fresh growth medium lacking EU. Compound or ASO treatment was performed at the same time of initial EU treatment, and compounds were replenished after replacing the medium to remove EU. Total RNA was extracted by using a Zymo Quick-RNA Miniprep Kit as per manufacturer's protocol with DNase treatment. The click reaction and pull-down of nascent RNA were performed as described in “In Vitro Chemical-Crosslinking and Isolation by Pull-down (Chem-CLIP) with Fluorescently Labeled RNA”. […]

QSOX1-a mRNA [2] = assay: QSOX1-a mRNA abundance by RT-qPCR in MDA-MB-231 cells; assay type: cell-based, human; parameters: dose or concentration left out as unconfirmed; settings: at the, the highest dose
Procedure: Analysis of mRNA Abundance by RT-qPCR. Unless stated otherwise, all RT-qPCR experiments were performed to measure nascent RNA levels by using Click-it Nascent RNA Capture Kit (Cat #C10365, Thermo Fisher) per the manufacturer's protocols. Briefly, cells were treated with 0.2 mM of ethynyl uridine (EU) in growth medium for 16 h, after which the medium was replaced with fresh growth medium lacking EU. Compound or ASO treatment was performed at the same time of initial EU treatment, and compounds were replenished after replacing the medium to remove EU. Total RNA was extracted by using a Zymo Quick-RNA Miniprep Kit as per manufacturer's protocol with DNase treatment. The click reaction and pull-down of nascent RNA were performed as described in “In Vitro Chemical-Crosslinking and Isolation by Pull-down (Chem-CLIP) with Fluorescently Labeled RNA”. Reverse transcription (RT) was performed by using 300 ng total RNA and a QScript cDNA synthesis kit (QuantaBio) per manufacturer's protocols qPCR was performed in 384-well plates by using Power SYBR Green Master Mix (Life Technologies) on a QuantStudioS™ Cycler (Applied Biosystems) using the “Comparative Ct with Melt” method.

[3] = test system: wild type (WT) QSOX1 5′ UTR RNA hairpin; assay: In vitro Chem-CLIP and competitive Chem-CLIP with Cy5-labeled WT RNA; assay type: binding, human
Procedure: In Vitro Chemical-Crosslinking and Isolation by Pull-down (Chem-CLIP) with Fluorescently Labeled RNA. Cy5-labeled RNA (100 μL, 2 μM) was folded by heating at 95° C. for 2 min in 1× Folding Buffer and cooled on ice. The RNA was then mixed with F1 at the indicated concentrations. The sample was irradiated with UV light (365 nm) for 15 min and then added to 100 μL of azide-disulfide agarose beads (Click Chemistry Tools, 1238-2) pre-washed with 200 μL of 25 mM HEPES, pH 7.0. A click reaction solution was prepared by mixing 30 μL of 250 mM sodium ascorbate, 30 μL of 10 mM CuSO4, and 30 μL of 50 mM THPTA, which was added to the sample. The sample was incubated while rotating at 37° C. for 2 h, briefly centrifuged, and then the supernatant was decanted. The beads were washed six times with 1× Washing Buffer (10 mM Tris-HCl, pH 7, 4 M NaCl, 1 mM EDTA, and 0.05% (v/v) Tween-20) following by incubation with 1× Releasing Buffer (50 mM TCEP and 100 mM K2CO3) at 37° C. for 30 min. An equivalent of iodoacetamide (200 mM) was added to the sample, which was incubated at 37° C. for an additional 30 min. The sample was briefly centrifuged and supernatant containing RNA was carefully transferred to a clean tube. Cy-5 fluorescence in the supernatant was measured with a Molecular Devices SpectraMax M5 plate reader with an excitation wavelength of 640 nm and an emission wavelength of 680 nm. For competitive Chem-CLIP, F1-RIBOTAC was added to the folded the RNA and incubated at room temperature for 15 min prior to the addition of F1. Pull-down was then completed as described above.

Row | SMILES | effect on QSOX1-a mRNA in RNase L-knockdown cells (QSOX1-a mRNA [1]) | decrease of QSOX1-a mRNA levels (QSOX1-a mRNA [2]) [%] | competition of F1 cross-linking to the QSOX1-a target site (competitive Chem-CLIP) ([3]; constant concentration of F1, increasing competitor) | cross-linking / pull-down of WT QSOX1-a 5′ UTR hairpin ([3]; in vitro Chem-CLIP)
1 | CCOC(=O)C1=C(Nc2ccccc2)S/C(=C\c2ccc(OCCOCCOCCOCCNC(=O)CCC(=O)N(C)[C@H]3CC[C@@H](c4ccc(Cl)c(Cl)c4)c4ccccc43)c(O)c2)C1=O [Compound F1-RIBOTAC] | ablated | ~35 | dose-dependently competed off; also recorded: dose-dependently ablates | –
2 | C#CCCC1(CCC(=O)N(C)[C@H]2CC[C@@H](c3ccc(Cl)c(Cl)c3)c3ccccc32)N=N1 [Compound F1] | – | – | – | selectively cross-linked; also recorded: significantly pulled down
